Experimental data from ChEMBL document CHEMBL5725865, “Neprilysin inhibitors” (2018).

Assay: Enzyme NEP Inhibition Assay: The assays were performed in 384-well white opaque plates at 37° C. using the fluorogenic peptide substrates at a concentration of 10 μM in Assay Buffer (NEP: 50 mM HEPES, pH 7.5, 100 mM NaCl, 0.01% polyethylene glycol sorbitan monolaurate (Tween-20), 10 μM ZnSO4; ACE: 50 mM HEPES, pH 7.5, 100 mM NaCl, 0.01% Tween-20, 1 μM ZnSO4). The respective enzymes were used at …
Description: Enzyme NEP Inhibition Assay: The assays were performed in 384-well white opaque plates at 37° C. using the fluorogenic peptide substrates at a concentration of 10 μM in Assay Buffer (NEP: 50 mM HEPES, pH 7.5, 100 mM NaCl, 0.01% polyethylene glycol sorbitan monolaurate (Tween-20), 10 μM ZnSO4; ACE: 50 mM HEPES, pH 7.5, 100 mM NaCl, 0.01% Tween-20, 1 μM ZnSO4). […] Test compounds were added to the enzymes and incubated for 30 minute at 37° C. prior to initiating the reaction by the addition of substrate.

**Q.** Which Ki does the source give for `O=C(O)C(=O)N[C@H](Cc1ccc(-c2ccccc2)cc1)CC(O)C(=O)O` (stereo partly specified) here?
**A.** Its Ki is “in the range around 35.5 nM”.
